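Cells were grown in 96-well plates and exposed to each compound for 48 hours at five concentrations; endpoints were interpolated linearly between bracketing concentrations, or set to the highest concentration if not reached. GI50 = concentration required for 50% inhibition of growth.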 The source made the active and inactive calls. Rule as the data show it: active = GI50 up to about 1.1 µM and inactive = higher. Bounds are passed on as bounds.

Twelve compounds from ChEMBL document CHEMBL1201862, “PubChem BioAssay data set” (2004) can be followed below.

Common to all, as to test: NCI tumour cell line growth inhibition, 48 h
Assay [1] concerns 786-0.
Assay [2] has as its system A498.
Assay [3] relates to ACHN.
In assay [4] the test system is CCRF-CEM.
Assay [5] has as its system EKVX.
For assay [6], the system named is HCC 2998.
Assay [7] concerns HL-60.
Assay [8] deals with HOP-62.
Assay [9] deals with LOX IMVI.
Assay [10] has as its system MDA-MB-231.
Assay [11] relates to MDA-N.
Assay [12] deals with NCI-H522.
Assay [13] concerns PC-3.
The subject of assay [14] is RXF 393.
In assay [15] the test system is NCI-H460.
The test system of assay [16] is SF-268.
In assay [17] the test system is SK-MEL-28.
Assay [18] deals with SNB-19.
The subject of assay [19] is SNB-75.
The subject of assay [20] is SR.

Consider `CCc1ccc2c(c1)CC1(C2)Cc2cc3c(cc2C1)C(=O)CC3` (stereo unspecified), for which the GI50 is 25.6 µM (inactive) in assay [1]; 10.9 µM (inactive) in assay [2]; 17.9 µM (inactive) in [3]; 2.94 µM (inactive) in assay [4]; > 100 µM (inactive) in [5]; 10.5 µM (inactive) in assay [6]. Further, the GI50 was 2.69 µM (inactive) in assay [7]; 19.8 µM (inactive) in [8]; 15.4 µM (inactive) in assay [9]; 21.2 µM (inactive) in [10]; 2.25 µM (inactive) in [11]; 20.3 µM (inactive) in assay [12]. Moreover, the figures for the GI50 in assay [13] and in assay [14] were 16.3 µM (inactive) and 36.9 µM (inactive), respectively.

Turning to `CN1CC[C@@]2(c3cccc(O)c3)CC(=O)/C(=C/c3ccc(Cl)c(Cl)c3)[C@H]1C2`, the GI50 was 1.71 µM (inactive) in assay [1]; 13.6 µM (inactive) in [2]; 1.67 µM (inactive) in assay [3]; 2.26 µM (inactive) in assay [4]; 8.79 µM (inactive) in assay [5]; 1.82 µM (inactive) in [6]. In addition, the GI50 in assay [7] was 1.52 µM (inactive); in assay [8], 2.67 µM (inactive); in assay [9], 1.48 µM (inactive); in [11], 1.87 µM (inactive); in assay [15], 2.11 µM (inactive); in [13] it was 1.57 µM (inactive). The GI50 was 2.66 µM (inactive) in assay [14]; 2.63 µM (inactive) in assay [16]; 1.93 µM (inactive) in assay [17]; 3.26 µM (inactive) in assay [18]; 1.06 µM (active) in assay [19]; 1.14 µM (inactive) in [20].

In the case of `CC(=O)OCC1OC(n2c(-c3cccs3)c3c(c(C#N)c2=S)-c2ccccc2CC3)C(OC(C)=O)C(OC(C)=O)C1OC(C)=O` (stereo unspecified), the GI50 in assay [1] is 9.27 µM (inactive); in assay [2] it was 7.66 µM (inactive); in assay [3], 9.64 µM (inactive); in assay [4] it was 9.91 µM (inactive); in [5] it was 5.53 µM (inactive); in [6] it was 8.73 µM (inactive). The GI50 in [7] is 2.64 µM (inactive); in assay [8], 11.9 µM (inactive); in assay [9] it was 6.82 µM (inactive); in assay [10], 16.6 µM (inactive); in [15], 11.5 µM (inactive); in [12] it was 10.7 µM (inactive). Besides, the GI50 in [13] was 9.04 µM (inactive); in [14] it was 8.28 µM (inactive); in [16] it was 14.9 µM (inactive); in [17], 13.7 µM (inactive); in [18] it was 13 µM (inactive); in assay [19], 1.36 µM (inactive). Moreover, the GI50 in assay [20] is 3.05 µM (inactive).

Take `c1ccc(CC2(c3cc4ccccc4[nH]3)OCCO2)nc1`: the GI50 in assay [1] was > 100 µM (inactive); in assay [2], > 100 µM (inactive); in assay [3], > 100 µM (inactive); in [4] it was 83 µM (inactive); in assay [5], 92.3 µM (inactive); in assay [7], 72.3 µM (inactive). The GI50 in [8] was > 100 µM (inactive); in assay [9], 34.7 µM (inactive); in assay [10], > 100 µM (inactive); in assay [11] it was > 100 µM (inactive); in assay [15], > 100 µM (inactive); in assay [12], 70.8 µM (inactive). In addition, the GI50 is > 100 µM (inactive) in assay [13]; 88.1 µM (inactive) in [14]; > 100 µM (inactive) in assay [16]; > 100 µM (inactive) in [17]; > 100 µM (inactive) in assay [18]; 12.1 µM (inactive) in assay [19].

As to `COc1cc(C2SCC(=O)N2c2ccc(-c3ccc(-n4c(-c5ccccc5)nc5ccccc5c4=O)cc3)cc2)cc(OC)c1OC` (stereo unspecified), the GI50 was 16.2 µM (inactive) in assay [1]; 44.3 µM (inactive) in [2]; 16.6 µM (inactive) in assay [3]; 10.6 µM (inactive) in [4]; 37.5 µM (inactive) in assay [5]; 55.2 µM (inactive) in assay [6]. Further, the GI50 in assay [7] was 22.3 µM (inactive); in assay [8] it was 23.3 µM (inactive); in assay [9] it was 2.21 µM (inactive); in [10], 15.6 µM (inactive); in [15], 27.5 µM (inactive); in [12], 13.4 µM (inactive). For the same compound, the GI50 in [13] is 11.4 µM (inactive); in [16], 63 µM (inactive); in assay [17], 21.9 µM (inactive); in assay [18], 26.5 µM (inactive); in assay [20] it was 23.1 µM (inactive).

Regarding `CCN(CC)CCNc1ccc2ncn3c4cc(OC)c(OC)c(O)c4c(=O)c1c23`, the GI50 is 4.01 µM (inactive) in assay [1]; 15.5 µM (inactive) in assay [2]; 3.76 µM (inactive) in assay [3]; 0.897 µM (active) in assay [4]; 16 µM (inactive) in assay [5]; 10.5 µM (inactive) in [6]. For the same compound, the GI50 in assay [7] was 11 µM (inactive); in assay [8] it was 11.4 µM (inactive); in [9], 1.24 µM (inactive); in assay [10] it was 5.93 µM (inactive); in [15], 1.39 µM (inactive); in assay [12], 12.6 µM (inactive). The GI50 in [13] is 6.52 µM (inactive); in assay [14], 1.36 µM (inactive); in assay [16], 3.49 µM (inactive); in [17], 14.4 µM (inactive); in [18] it was 7.59 µM (inactive); in [19] it was 2.78 µM (inactive). The GI50 in assay [20] was 1.29 µM (inactive).

Regarding `CCOC(=O)CCc1c(C(=O)OCC)[nH]c(/C=C2\NC(=O)C(C)=C2CC)c1C`, the GI50 is 14.5 µM (inactive) in [1]; 15.5 µM (inactive) in [3]; > 100 µM (inactive) in assay [4]; 22.2 µM (inactive) in assay [5]; > 100 µM (inactive) in assay [7]; 14.5 µM (inactive) in assay [8]. Further, the GI50 in assay [9] is 22.5 µM (inactive); in assay [10], 19.8 µM (inactive); in assay [15], 44.3 µM (inactive); in assay [12], 14.5 µM (inactive); in assay [13], 26.4 µM (inactive); in [14], 23.2 µM (inactive). Also, the figures for the GI50 in assay [16], in assay [17] and in assay [19] were 26.9 µM (inactive), 51.8 µM (inactive) and 13.5 µM (inactive), respectively.

As for `CC(=O)Nc1nc2c(=O)c3ccccc3sc2s1`, the GI50 in [1], in assay [2], in assay [3], in assay [4], in [5] and in [7] was > 100 µM (inactive) throughout. Also, the GI50 in assay [8], in assay [10], in assay [11], in assay [15], in assay [13] and in [14] was > 100 µM (inactive) each time. Besides, the GI50 in [16], in assay [18] and in assay [19] was > 100 µM (inactive) in each case.

For `CC(C)(C)OC(=O)N(CCCCN(CCCNC(=O)C(F)(F)F)C(=O)OC(C)(C)C)CCCNC(=O)C(F)(F)F`, the GI50 in [1], in assay [2], in assay [3], in assay [4], in assay [5] and in assay [6] was > 100 µM (inactive) throughout. The GI50 in assay [7] was 60.3 µM (inactive); in [8], 38.7 µM (inactive); in [9] it was > 100 µM (inactive); in assay [10], > 100 µM (inactive); in [15], > 100 µM (inactive); in assay [12], 24 µM (inactive). The GI50 in assay [13], in assay [14], in [16], in assay [17], in [18] and in assay [19] was > 100 µM (inactive) each time. Also, the GI50 in assay [20] is > 100 µM (inactive).

`O=C1CC(c2cccc(Cl)c2)n2cccc21` (stereo unspecified): the GI50 in assay [1] is > 100 µM (inactive); in assay [2], > 100 µM (inactive); in assay [3], > 100 µM (inactive); in assay [4], > 100 µM (inactive); in [6], 88.7 µM (inactive); in assay [7], 32.8 µM (inactive). Also, the GI50 was > 100 µM (inactive) in [8]; > 100 µM (inactive) in assay [9]; > 100 µM (inactive) in assay [10]; 49.5 µM (inactive) in assay [13]; > 100 µM (inactive) in assay [14]; 74.6 µM (inactive) in [16]. Besides, the GI50 is > 100 µM (inactive) in assay [17], > 100 µM (inactive) in assay [18], 47.8 µM (inactive) in assay [19] and 90.2 µM (inactive) in assay [20].

In the case of `OC(c1ccccc1)(c1cccnc1)C(O)(c1ccccc1)c1cccnc1` (stereo unspecified), the GI50 in [1], in assay [3], in [4], in assay [5], in assay [7] and in assay [10] was > 100 µM (inactive) throughout. Besides, the GI50 in [11] was > 100 µM (inactive); in [15], > 100 µM (inactive); in assay [12], 6.97 µM (inactive); in [13], > 100 µM (inactive); in assay [14] it was > 100 µM (inactive); in [16] it was > 100 µM (inactive). The GI50 in [18] and in assay [19] was > 100 µM (inactive) each time.

On to `CCN(CC)CCN(/C(=N/c1ccccc1)N1CCOCC1)c1ccccc1`, for which the GI50 in assay [1] was > 100 µM (inactive); in assay [4], > 100 µM (inactive); in [5], > 100 µM (inactive); in assay [6], > 100 µM (inactive); in assay [7], 18.2 µM (inactive); in assay [8], 74.6 µM (inactive). In addition, the GI50 in assay [9] was 44.6 µM (inactive); in assay [10] it was > 100 µM (inactive); in assay [15], > 100 µM (inactive); in assay [12], > 100 µM (inactive); in assay [13], > 100 µM (inactive); in [14], > 100 µM (inactive). Besides, the GI50 in [16] was > 100 µM (inactive); in assay [17], > 100 µM (inactive); in [18], > 100 µM (inactive); in assay [19], > 100 µM (inactive); in assay [20] it was 50.6 µM (inactive).
